Assay results as given in patent US8012983B2, “Substituted triazolopyrazines useful for the treatment of degenerative and inflammatory diseases” (Galapagos NV, priority 2008, dated 2011).
pIC50: −log10 of the molar value.

System: MMP13 expression in SW1353 chondrosarcoma cell line
Experiment: MMP13 assay: IL-1/OSM-driven MMP13 expression in SW1353 cells (MMP13 ELISA)
Format: cell-based
Conditions: Homo sapiens, IL-1β and OSM, 48 hr
Method: The protocol of the MMP13 ELISA is described in section 4.1, then testing of compounds on release of IL-1/OSM-driven MMP13 expression in SW1353 chondrosarcoma cell line is described in section 4.2.
A 384 well format ELISA for measurement of MMP13 was developed. Various primary antibodies were tested, as well as various ELISA protocols. The following protocol is developed and validated to measure MMP13 levels in supernatant of cell cultures in 384 well plates.
Black maxisorb 384 well plates (Nunc 460518) are coated with 35 μl of a buffered solution containing 1.5 μg/mL anti-MMP13 antibody MAB511 (R&D systems). The antibody is diluted in carbonate-bicarbonate coating buffer (1.59 g Na2CO3 (Sigma S-7795) and 2.93 g NaHCO3 (Sigma S-5761) in 1 L MilliQ water, adjusted to pH 9.6). After overnight incubation at 4° C., wells are washed twice with 100 μL PBST (80 g NaCl, 2 g KCl (Sigma), 11.5 g Na2HPO4.7H2O and 2 g KH2PO4 in 10 L milliQ water; pH 7.4+0.05% Tween-20 (Sigma)) and blocked with 100 μL/well blocking buffer (5% non fat dry milk in PBS). After overnight incubation at 4° C., wells are washed twice with 100 μL PBST. The PBST is removed and 35 μL of sample is transferred to the ELISA plates. After 4 hr incubation at RT, plates are washed twice with PBST and incubated for 1 hr at 37° C. with 35 μL/well 1.5 mM APMA solution (a 10 mM APMA stock solution is prepared one day before (35.18 mg APMA (Sigma A-9563) in 10 mL 0.1M NaOH (Merck 1.06469.1000) and stored at 4° C. Before use, the 10 mM APMA stock solution is diluted to 1.5 mM in 1×APMA buffer (10× APMA buffer: 500 mM Tris (Roche 708976), 50 mM CaCl2 (Sigma C-5080), […] ZnCl2 (Sigma Z-0173), 1.5 M NaCl (Calbiochem 567441), 0.5% Brij35 (Sigma 430 AG-6) and adjust to pH 7.0). After activation of MMP13 by APMA, plates are washed again two times with 100 μL PBST/well and 35 μL of substrate solution is added to each well. Substrate solution is prepared as follows: OmniMMP Fluorescent substrate (Biomol P-126) stock solution (2 mM in DMSO, stored at −20° C.) is diluted in 1× OmniMMP buffer (10× OmniMMP buffer: 500 mM Hepes (Sigma H4034), 100 mM CaCl2 (Sigma C5080), 0.5% Brij35 (Sigma 430 AG-6; adjusted to pH 7.0) to a final concentration of 0.01 mM. After an overnight incubation at 37° C., the active MMP13 in the sample has cleaved the substrate and released fluorescence. Readout is performed on the EnVision (Perkin Elmer) using 320 nm excitation/405 nm emission filters.
Human chondrosarcoma cell line SW1353 was acquired from ATCC and grown in DMEM supplemented with 10% heat-inactivated FBS and 1× penicillin/streptomycin (Invitrogen) in a humidified 5% CO2 incubator at 37° C. Aliquots of the cells were frozen and cryopreserved in liquid nitrogen. Starting from a cryopreserved aliquot, cells are further grown by sub-culturing at a 1/5-1/8 ratio twice a week by trypsinisation.
Starting from the compound master stocks (all at 10 mM concentration in 100% DMSO) a 3-fold serial dilution is made in 96-well plates in 100% DMSO. Then, plates are futher diluted 50-fold in M199 medium supplemented with 1% heat-inactivated FBS to obtain an intermediate work stock.
At day 1, SW1353 cells are seeded in 96-well plates (flat bottom, tissue culture treated, Greiner) at a density of 15000 cells/well in 120 μL growth medium. The next day, 15 μL compound out of the intermediate work stock is added. After an incubation period of 60 minutes, which allows the compounds to equilibrate and enter the cells, cells are stimulated with a mixture of IL-1β and OSM, added in a volume of 15 μL to obtain final concentrations of 1 ng/ml IL-1β and 25 ng/ml OSM. For that, stocks of IL-1 (10 μg/ml) and OSM (25 μg/ml) (both PeproTech) were diluted to 10 ng/ml and 250 ng/ml respectively, in M199 medium supplemented with 1% FBS. After incubation for 48 hr, the cell supernatant was harvested and an appropriate dilution was processed in the MMP13 ELISA as described above, delivering raw data (RFU: relative fluorescence units). […]

| SMILES | pIC50 |
| --- | --- |
| CCOC(=O)c1cc(-c2cnc(Nc3ccc(N4C[C@@H]5C[C@H]4CN5C(C)C)cc3)c3ncnn23)[nH]n1 [Compound 21, Ethyl 5-(8-(4-((1S,4S)-5-isopropyl-2,5-diazabicyclo[2.2.1]heptan-2-yl)phenylamino)-[1,2,4]triazolo[1,5-a]pyrazin-5-yl)-1H-pyrazole-3-carboxylate] | < 6.00 |
| CCOc1cc(-c2cnc(Nc3ccc(N4C[C@@H]5C[C@H]4CN5C(C)C)cc3)c3ncnn23)ccn1 [Compound 19, 5-(2-ethoxypyridin-4-yl)-N-(4-((1S,4S)-5-isopropyl-2,5-diazabicyclo[2.2.1]heptan-2-yl)phenyl)-[1,2,4]triazolo[1,5-a]pyrazin-8-amine] | < 6.00 |
